# Test results reported in patent publication US20250360132A1, “METHODS OF ADMINISTERING MYOSIN INHIBITORS” (MYOKARDIA, INC., priority 2022, published 2025).
# How the values were obtained:
# [1] = Pharmacokinetics in hepatic impairment; type: in vivo, human; settings: mild (Child-Pugh A) or moderate (Child-Pugh B) hepatic impairment vs normal hepatic function
# Description: No dosage adjustment is required in patients with mild (Child-Pugh A) to moderate (Child-Pugh B) hepatic impairment. […] However, no additional dose adjustment is required in patients with mild to moderate hepatic impairment with the recommended dose titration algorithm and monitoring plan. The effect of severe (Child-Pugh C) hepatic impairment is unknown.
# The effect of severe (Child-Pugh C) hepatic impairment is unknown.
# [2] = tested on: organic cation transporters (OCTs); test: In vitro transporter inhibition; type: in vitro ADME
# CYP2C9 [3] = molecular target: T1, CYP2C9 (Homo sapiens, UniProt P11712); test: Metabolism, contribution of CYP2C9; type: in vitro ADME
# Description: (§1) Mavacamten is extensively metabolized, primarily through CYP2C19 (74%), CYP3A4 (18%), and CYP2C9 (8%).
# (§2) Statement of Purpose: Mavacamten is a first-in-class, selective, allosteric, and reversible cardiac myosin inhibitor in development for the treatment of adults with symptomatic obstructive hypertrophic cardiomyopathy. Mavacamten is hepatically metabolized predominantly via CYP2C19 (74%), CYP3A4 (18%) and CYP2C9 (8%). A previously developed fit-for-purpose physiologically based pharmacokinetic (PBPK) model was applied to explore the induction effects of a strong CYP3A4/CYP2C19 inducer-rifampin, as well as a strong CYP3A4 inducer-carbamazepine, on mavacamten exposures.
# CYP2C9 [4] = molecular target: T1, CYP2C9; test: In vitro CYP inhibition; type: in vitro ADME; settings: at clinically relevant concentrations
# Description: (§3) Mavacamten is a CYP2B6 inducer.
# CYP2C8 = CYP2C8 (Homo sapiens, UniProt P10632); test: In vitro CYP inhibition; type: in vitro ADME
# Description: as §3
# CYP2C19 [5] = molecular target: T2, CYP2C19 (Homo sapiens, UniProt P33261); test: In vitro CYP inhibition; type: in vitro ADME; settings: at clinically relevant concentrations
# Description: as §3
# CYP3A4 [6] = molecular target: T3, CYP3A4 (Homo sapiens, UniProt P08684); test: In vitro CYP inhibition; type: in vitro ADME; settings: at clinically relevant concentrations
# Description: as §3
# CYP2D6 = CYP2D6 (Homo sapiens, UniProt P10635); test: In vitro CYP inhibition; type: in vitro ADME; settings: at clinically relevant concentrations
# Description: as §3
# CYP2B6 [7] = molecular target: CYP2B6 (Homo sapiens, UniProt P20813); test: In vitro CYP inhibition; type: in vitro ADME
# Description: as §3
# CYP1A2 = CYP1A2 (Homo sapiens, UniProt P05177); test: In vitro CYP inhibition; type: in vitro ADME
# Description: as §3
# CYP3A4 [8] = molecular target: T3, CYP3A4; test: Metabolism, contribution of CYP3A4; type: in vitro ADME
# Description: as §1, §2
# CYP2B6 [9] = test: In vitro CYP induction; type: in vitro ADME
# Description: as §3
# CYP2C19 [10] = test: Pharmacogenomics: CYP2C19 PMs vs NMs, single dose; type: in vivo, human; settings: single dose of 15 mg mavacamten
# Description: Mean half-life is prolonged in CYP2C19 PMs compared to NMs (23 days vs. 6 to 9 days, respectively).
# Polymorphic CYP2C19 is the main enzyme involved in the metabolism of MAVACAMTEN. An individual carrying two normal function alleles is a NM (e.g., *1/*1). An individual carrying two no function alleles is a PM (e.g., *2/*2, *2/*3, *3/*3).
# BCRP = BCRP (Homo sapiens, UniProt Q9UNQ0); test: In vitro transporter inhibition; type: in vitro ADME
# HCM patients = test: Meta-analysis of QTc across clinical studies; type: in vivo, human; settings: therapeutic exposure range
# Description: The effect of coadministration of MAVACAMTEN with QT-prolonging drugs or in patients with potassium channel variants resulting in a long QT interval have not been characterized.
# CYP2C19 [11] = molecular target: T2, CYP2C19; test: Clinical DDI with weak CYP2C19 inhibitor omeprazole; type: in vivo; parameters: host or cells: in silico (Simcyp v19); settings: mavacamten 15 mg with omeprazole 20 mg once daily; healthy CYP2C19 NMs and RMs
# [12] = tested on: organic anion transporting polypeptides (OATPs); test: In vitro transporter inhibition; type: in vitro ADME
# Solubility = type: physicochemical
# [13] = tested on: adults with symptomatic NYHA class II and III obstructive HCM; settings: Olivotto et al., 2020, The Lancet; cited from earlier work
# T1 sequence (P11712 whole entry): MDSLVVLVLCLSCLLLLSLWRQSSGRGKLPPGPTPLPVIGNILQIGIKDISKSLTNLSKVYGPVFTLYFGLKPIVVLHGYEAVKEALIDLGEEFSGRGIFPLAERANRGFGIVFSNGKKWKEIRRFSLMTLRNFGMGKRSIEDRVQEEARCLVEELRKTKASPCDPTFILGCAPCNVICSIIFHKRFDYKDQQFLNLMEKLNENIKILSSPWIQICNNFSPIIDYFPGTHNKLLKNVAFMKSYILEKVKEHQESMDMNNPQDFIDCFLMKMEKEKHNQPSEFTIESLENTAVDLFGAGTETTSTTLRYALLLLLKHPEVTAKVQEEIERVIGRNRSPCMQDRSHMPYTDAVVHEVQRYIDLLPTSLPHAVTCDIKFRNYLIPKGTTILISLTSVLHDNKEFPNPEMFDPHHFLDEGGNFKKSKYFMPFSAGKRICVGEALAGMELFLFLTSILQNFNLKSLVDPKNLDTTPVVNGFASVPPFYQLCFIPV
# T3 sequence (P08684 whole entry): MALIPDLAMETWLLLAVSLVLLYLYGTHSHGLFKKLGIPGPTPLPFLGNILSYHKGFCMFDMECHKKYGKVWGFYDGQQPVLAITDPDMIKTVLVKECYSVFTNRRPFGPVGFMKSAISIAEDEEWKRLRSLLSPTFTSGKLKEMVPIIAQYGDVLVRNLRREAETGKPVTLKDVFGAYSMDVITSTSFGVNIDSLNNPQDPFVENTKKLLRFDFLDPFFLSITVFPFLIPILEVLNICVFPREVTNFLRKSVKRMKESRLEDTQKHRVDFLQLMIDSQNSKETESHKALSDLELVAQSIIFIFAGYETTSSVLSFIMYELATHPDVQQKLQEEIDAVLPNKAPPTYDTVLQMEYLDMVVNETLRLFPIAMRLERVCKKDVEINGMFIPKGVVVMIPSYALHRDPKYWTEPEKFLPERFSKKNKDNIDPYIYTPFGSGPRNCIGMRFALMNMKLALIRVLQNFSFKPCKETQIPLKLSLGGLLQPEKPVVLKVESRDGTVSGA
# T2 sequence (P33261 whole entry): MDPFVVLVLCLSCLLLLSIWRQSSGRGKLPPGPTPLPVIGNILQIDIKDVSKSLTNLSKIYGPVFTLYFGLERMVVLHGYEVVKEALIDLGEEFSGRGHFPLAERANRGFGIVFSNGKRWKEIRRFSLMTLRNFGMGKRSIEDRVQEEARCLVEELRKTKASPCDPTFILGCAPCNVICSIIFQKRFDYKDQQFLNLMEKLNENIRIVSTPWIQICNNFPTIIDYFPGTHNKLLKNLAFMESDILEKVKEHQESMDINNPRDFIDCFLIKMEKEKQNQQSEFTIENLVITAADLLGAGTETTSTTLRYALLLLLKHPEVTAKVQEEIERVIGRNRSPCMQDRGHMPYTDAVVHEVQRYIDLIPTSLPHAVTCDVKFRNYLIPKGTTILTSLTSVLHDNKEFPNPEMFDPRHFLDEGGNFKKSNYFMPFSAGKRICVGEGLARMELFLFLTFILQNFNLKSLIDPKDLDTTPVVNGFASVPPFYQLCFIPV
# Chain of CYP2D6 (P10635 whole entry): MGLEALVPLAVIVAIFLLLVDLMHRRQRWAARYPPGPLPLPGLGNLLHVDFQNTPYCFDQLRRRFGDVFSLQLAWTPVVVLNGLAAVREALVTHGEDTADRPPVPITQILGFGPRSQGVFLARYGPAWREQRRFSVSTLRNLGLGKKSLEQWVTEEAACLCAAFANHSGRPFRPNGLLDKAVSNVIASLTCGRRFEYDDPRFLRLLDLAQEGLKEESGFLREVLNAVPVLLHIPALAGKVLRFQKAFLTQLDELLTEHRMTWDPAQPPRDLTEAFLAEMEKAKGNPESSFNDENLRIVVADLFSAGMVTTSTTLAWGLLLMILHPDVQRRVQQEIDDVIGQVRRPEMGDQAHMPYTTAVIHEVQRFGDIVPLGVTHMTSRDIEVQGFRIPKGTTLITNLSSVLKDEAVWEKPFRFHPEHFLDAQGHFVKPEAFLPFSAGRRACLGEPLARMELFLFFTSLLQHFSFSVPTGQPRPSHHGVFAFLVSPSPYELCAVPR
# Chain of CYP2B6 (Homo sapiens, UniProt P20813) (P20813 whole entry): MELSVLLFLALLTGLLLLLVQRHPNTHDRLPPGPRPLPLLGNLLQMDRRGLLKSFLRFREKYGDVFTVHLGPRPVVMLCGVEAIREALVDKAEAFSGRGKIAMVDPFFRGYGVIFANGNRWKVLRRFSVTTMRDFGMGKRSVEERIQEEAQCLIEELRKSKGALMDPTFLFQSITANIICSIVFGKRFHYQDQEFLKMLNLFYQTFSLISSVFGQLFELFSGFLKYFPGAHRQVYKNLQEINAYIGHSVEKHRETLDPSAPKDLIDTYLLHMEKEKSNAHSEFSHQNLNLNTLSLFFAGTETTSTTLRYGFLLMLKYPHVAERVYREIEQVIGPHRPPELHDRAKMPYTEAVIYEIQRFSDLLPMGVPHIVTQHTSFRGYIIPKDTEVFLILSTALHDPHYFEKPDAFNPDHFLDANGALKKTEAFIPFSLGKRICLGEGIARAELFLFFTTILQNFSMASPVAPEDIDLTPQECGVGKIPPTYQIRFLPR
# Chain of CYP1A2 (P05177 whole entry): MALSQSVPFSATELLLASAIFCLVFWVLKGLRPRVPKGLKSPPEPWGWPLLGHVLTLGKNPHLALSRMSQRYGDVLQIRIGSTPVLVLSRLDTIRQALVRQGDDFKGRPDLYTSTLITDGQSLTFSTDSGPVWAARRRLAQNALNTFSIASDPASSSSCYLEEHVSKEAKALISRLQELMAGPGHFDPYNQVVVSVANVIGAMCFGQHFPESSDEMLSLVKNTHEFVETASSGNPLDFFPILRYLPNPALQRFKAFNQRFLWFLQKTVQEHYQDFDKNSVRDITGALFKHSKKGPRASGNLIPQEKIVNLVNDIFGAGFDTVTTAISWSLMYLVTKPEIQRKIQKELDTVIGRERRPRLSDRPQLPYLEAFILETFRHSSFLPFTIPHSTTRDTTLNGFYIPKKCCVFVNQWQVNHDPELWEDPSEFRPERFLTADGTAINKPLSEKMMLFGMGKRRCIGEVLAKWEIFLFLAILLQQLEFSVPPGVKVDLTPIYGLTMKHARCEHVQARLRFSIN
# Chain of CYP2C8 (P10632 whole entry): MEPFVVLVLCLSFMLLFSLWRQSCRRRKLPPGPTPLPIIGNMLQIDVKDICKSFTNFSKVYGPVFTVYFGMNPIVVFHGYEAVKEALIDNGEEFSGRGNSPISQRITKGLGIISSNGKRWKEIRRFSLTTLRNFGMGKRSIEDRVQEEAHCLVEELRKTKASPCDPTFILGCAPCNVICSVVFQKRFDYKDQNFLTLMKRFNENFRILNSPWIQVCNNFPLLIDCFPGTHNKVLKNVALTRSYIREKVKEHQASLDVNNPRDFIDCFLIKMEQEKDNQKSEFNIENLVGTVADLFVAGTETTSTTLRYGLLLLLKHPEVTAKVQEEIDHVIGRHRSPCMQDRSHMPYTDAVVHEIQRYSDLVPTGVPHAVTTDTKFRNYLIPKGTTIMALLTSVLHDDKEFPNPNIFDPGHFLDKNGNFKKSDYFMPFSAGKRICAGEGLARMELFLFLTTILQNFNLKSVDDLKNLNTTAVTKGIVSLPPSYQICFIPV
# Chain of BCRP (Q9UNQ0 whole entry): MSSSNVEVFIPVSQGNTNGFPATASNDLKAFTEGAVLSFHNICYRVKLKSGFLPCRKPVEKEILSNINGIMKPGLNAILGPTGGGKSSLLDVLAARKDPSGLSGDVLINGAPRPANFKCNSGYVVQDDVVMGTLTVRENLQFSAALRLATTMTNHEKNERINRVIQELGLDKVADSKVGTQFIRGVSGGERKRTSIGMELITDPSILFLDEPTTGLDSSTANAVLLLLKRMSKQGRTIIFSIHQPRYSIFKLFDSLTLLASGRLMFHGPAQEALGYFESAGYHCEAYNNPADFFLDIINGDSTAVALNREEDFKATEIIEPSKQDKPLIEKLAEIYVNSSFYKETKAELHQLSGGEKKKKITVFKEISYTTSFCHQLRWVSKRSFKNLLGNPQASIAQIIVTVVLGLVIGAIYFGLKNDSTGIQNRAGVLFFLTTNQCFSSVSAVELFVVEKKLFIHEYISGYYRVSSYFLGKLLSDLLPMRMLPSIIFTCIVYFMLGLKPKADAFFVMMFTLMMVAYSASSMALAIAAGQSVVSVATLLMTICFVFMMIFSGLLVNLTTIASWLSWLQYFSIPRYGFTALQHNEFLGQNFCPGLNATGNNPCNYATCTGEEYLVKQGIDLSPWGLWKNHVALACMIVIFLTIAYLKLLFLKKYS
structure (smiles),measurement,setting,value
"CC(C)n1c(=O)cc(N[C@@H](C)c2ccccc2)[nH]c1=O [mavacamten, (S)-3-Isopropyl-6-((1-phenylethyl)amino)pyrimidine-2,4(1H,3H)-dione]",Increase in mavacamten exposure (AUC),[1],up to 220%
same,Inhibition of OCTs,[2],does not inhibit
same,Metabolism through CYP2C9,CYP2C9 [3],8%
same,Inhibition of CYP2C9,CYP2C9 [4],not an inhibitor
same,Inhibition of CYP2C8,CYP2C8,does not inhibit
same,Inhibition of CYP2C19,CYP2C19 [5],not an inhibitor
same,Inhibition of CYP3A4,CYP3A4 [6],not an inhibitor
same,Inhibition of CYP2D6,CYP2D6,not an inhibitor
same,Inhibition of CYP2B6,CYP2B6 [7],does not inhibit
same,Inhibition of CYP1A2,CYP1A2,does not inhibit
same,Metabolism through CYP3A4,CYP3A4 [8],18%
same,Induction of CYP2B6,CYP2B6 [9],inducer
same,Increase in AUCinf in CYP2C19 PMs compared to NMs,CYP2C19 [10],241%
same,Increase in Cmax in CYP2C19 PMs compared to NMs,CYP2C19 [10],47%
same,Inhibition of BCRP,BCRP,does not inhibit
same,QTc interval in HCM patients,HCM patients,does not suggest clinically relevant increases in the QTc interval
same,Increase in mavacamten AUCinf,CYP2C19 [11],48%
same,Inhibition of OATPs,[12],does not inhibit
same,Solubility in DMSO and NMP,Solubility,freely soluble
same,Solubility in methanol and ethanol,Solubility,sparingly soluble
same,Solubility in water and aqueous buffers,Solubility; pH 2-10,practically insoluble
same,Clinical benefit in EXPLORER-HCM,[13],"effective in reducing LVOT gradients and improving symptoms, exercise performance and health status"
